Patent EP2406206B1, “TETRAHYDRONAPHTHALEN-2-OL DERIVATIVES” (MSD Oss B.V., priority 2009, dated 2010)
pEC50: −log10 of the molar value.

Legend:
[1] = target: human estrogen receptor β receptor (hERβ) (Homo sapiens, UniProt Q92731); experiment: ERβ transactivation bioassay in recombinant CHO cells (rat oxytocin promoter, luciferase reporter); assay type: cell-based; settings: for ERβ/ERα ratio: ERβ agonistic selectivity over ERα, transactivation data; for ERβ eudismic ratio: ratio of the activities of the eutomer and the distomer on ERβ; for pEC50: transactivation of luciferase via hERβ in CHO cells, read-out: ERβ agonistic EC50
human estrogen receptor β receptor (hERβ), sequence (Q92731 whole entry): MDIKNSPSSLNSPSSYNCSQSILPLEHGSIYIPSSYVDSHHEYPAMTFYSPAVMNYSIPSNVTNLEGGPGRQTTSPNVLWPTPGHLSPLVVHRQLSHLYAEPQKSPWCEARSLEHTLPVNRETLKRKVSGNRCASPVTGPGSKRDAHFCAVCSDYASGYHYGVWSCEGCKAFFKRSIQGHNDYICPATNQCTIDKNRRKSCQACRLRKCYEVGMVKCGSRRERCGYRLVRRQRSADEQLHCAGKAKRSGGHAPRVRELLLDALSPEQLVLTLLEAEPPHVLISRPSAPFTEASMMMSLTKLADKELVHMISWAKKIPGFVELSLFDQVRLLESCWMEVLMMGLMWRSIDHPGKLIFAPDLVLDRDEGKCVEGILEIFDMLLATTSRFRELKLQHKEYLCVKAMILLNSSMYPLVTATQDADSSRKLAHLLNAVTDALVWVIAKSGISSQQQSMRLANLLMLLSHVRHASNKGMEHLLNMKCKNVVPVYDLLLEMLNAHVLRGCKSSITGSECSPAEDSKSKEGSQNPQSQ
Protocol: (§1) The estrogenic and antiestrogenic activity of compounds was determined in an in vitro bioassay with recombinant Chinese hamster ovary (CHO) cells stably co-transfected with the human estrogen receptor α (hERα) or β receptor (hERβ), the rat oxytocin promoter (RO) and the luciferase reporter gene (LUC). The estrogenic activity of a test compound to stimulate the transactivation of the enzyme luciferase mediated via the estrogen receptors hERα or hERβ is expressed in nM. The assay was performed as described by De Gooyer et al., Steroids 68 (2003), 21-30. Table 7. ERβ and ERα transactivation data

[2] = target: T1, human estrogen receptor α (hERα) (Homo sapiens, UniProt P03372); experiment: ERα transactivation bioassay in recombinant CHO cells (rat oxytocin promoter, luciferase reporter); assay type: cell-based; settings: ratio of the activities of the eutomer and the distomer on ERα
T1 sequence (P03372 1-595): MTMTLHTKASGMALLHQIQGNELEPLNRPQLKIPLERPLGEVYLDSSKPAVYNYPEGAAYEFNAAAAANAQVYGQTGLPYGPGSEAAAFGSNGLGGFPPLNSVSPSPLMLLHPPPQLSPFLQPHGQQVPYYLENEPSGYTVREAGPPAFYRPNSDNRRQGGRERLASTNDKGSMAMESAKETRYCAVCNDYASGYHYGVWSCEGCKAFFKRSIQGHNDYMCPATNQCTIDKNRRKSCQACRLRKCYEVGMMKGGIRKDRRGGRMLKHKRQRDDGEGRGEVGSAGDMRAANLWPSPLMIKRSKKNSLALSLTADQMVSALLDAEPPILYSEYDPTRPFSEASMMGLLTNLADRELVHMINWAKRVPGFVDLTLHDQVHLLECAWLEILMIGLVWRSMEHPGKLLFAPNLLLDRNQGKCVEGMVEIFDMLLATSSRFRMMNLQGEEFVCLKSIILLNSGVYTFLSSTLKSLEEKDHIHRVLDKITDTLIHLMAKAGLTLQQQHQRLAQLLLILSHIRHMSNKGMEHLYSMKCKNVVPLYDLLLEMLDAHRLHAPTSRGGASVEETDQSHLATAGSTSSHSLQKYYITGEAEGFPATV
Protocol: as §1

[3] = system: acinar epithelium of the ventral prostate; experiment: short-term prostate apoptosis and proliferation model in castrated rats; assay type: in vivo, Wistar rats
Protocol: Selected compounds were tested in a short-term prostate apoptosis and proliferation model in castrated rats.
Intact mature male Wistar rats (350-400 g) were castrated and left to recover for 1 week. 7 days after the castration rats received a single subcutaneous injection of testosterone buciclate (TB), a long-acting testosterone ester, in arachis oil (20 mg/kg) with a volume of 1 ml/kg and were subsequently treated once daily orally for 3 days with the test substance at doses between 0 and 1000 µg/kg, dissolved in gelatin/mannitol and dosed with a volume of 1 ml/kg.
At the end of the experiment rats were euthanized, the prostates were removed, weighed and processed for histology.
Apoptosis of the acinar epithelium of the ventral prostate was determined with TUNEL ([…]) staining. Apoptotic cells show nuclear DNA fragmentation and the TUNEL assay end-labels the fragmented DNA by incorporating biotinylated dUTP at the 3'-OH DNA ends using the enzyme Terminal deoxynucleotidyl Transferase (TdT). Positively stained cells are counted per acinus (glandular unit) in the ventral prostate. Proliferation of the acinar epithelium of the ventral prostate was determined by immunohistochemical staining with an antibody directed against Ki67 (clone Mib5). Positively stained cells are counted per acinus (glandular unit) in the ventral prostate. Statistical significance is determined as compared to TB alone by one-way ANOVA.

[4] = metabolic stability in human hepatocytes; assay type: in vitro ADME; settings: cryopreserved human hepatocytes in suspension, tetrahydronaphthalen-2-ol, 37°C, sampled 0-120 min, LC-MS/MS, read-out: Human hepatocyte T1/2
Protocol: A number of compounds 9, 11 and 12 were tested on metabolic stability in human hepatocytes. The hepatic stability was compared to corresponding chroman compounds 25, 26 or 27 (see structures below).
Test compounds were diluted to 3 µM in incubation medium. Then 40 µl of the 3 µM test compounds was pipetted into a 96 well microtiter plate (flat bottom). Hepatocytes (stored at -140 °C) were thawed in a 37°C water bath. The cells were resuspended into pre-warmed thawing medium and were centrifuged for 5 minutes at 50g at room temperature. The supernatant was discarded and the remaining cell pellet was resuspended in warm incubation medium and diluted to 7.5 E5 cells/ml. Then 80 µl of the cell suspension was added to each well of the 96 well microtiter plate containing the test compounds. The resulting mixture was incubated at 37°C and was sampled at t=0, 5, 30, 60, and 120 min. The samples were analyzed by LC-MS/MS to determine the content of unchanged test compound. Based on the rate of reduction of the content of test compound over time, the half-live (T1/2) was calculated. Metabolic stability in human hepatocytes

| Compound | ERβ/ERα ratio [1] | ERβ eudismic ratio [1] | pEC50 [1] | ERα eudismic ratio [2] | epithelial cell proliferation ([3]; Ki67 staining, ventral prostate, at 3 µg/kg orally, compared to TB-alone treated rats) | epithelial cell apoptosis ([3]; TUNEL staining, ventral prostate, castrated rats given TB, treated once daily orally for 3 days, compared to TB alone) | minimal active dose (MAD) ([3]; increase in epithelial cell apoptosis, once daily orally for 3 days) | half-life at 1 µM [4] |
| --- | --- | --- | --- | --- | --- | --- | --- | --- |
| C[C@H]1[C@@H](c2ccc(O)cc2)Cc2ccc(O)cc2[C@H]1Cc1ccccc1F (single isomer, unassigned) [Compound 11a] | 189 | >263 | 9.42 | >1.4 | decrease | statistically significant (p<0.01) increase | 3 µg/kg | 40.5 min |
| CC[C@H]1[C@@H](c2ccc(O)cc2)Cc2ccc(O)cc2[C@H]1Cc1ccccc1F (single isomer, unassigned) [Compound 11b] | 167 | 93 | 9.82 | 0.9 |  |  |  | 40.7 min |
| CC[C@H]1[C@@H](c2ccc(O)c(F)c2)Cc2ccc(O)cc2[C@H]1Cc1ccccc1F (single isomer, unassigned) [Compound 11q] | >169 | 7 | 9.23 | <0.3 |  |  |  | 82.2 min |
